Source: patent US8314129B2, “Optical isomers of an iloperidone metabolite” (Novartis AG, priority 2004, dated 2012)

Tests used:
[1] = higher than parent drug iloperidone; cited from earlier work
[2] = target: 5HT2A receptors (Homo sapiens, UniProt P28223); experiment: radioligand binding, 5HT2A receptor; conditions: standard radioligand binding; human recombinant receptors and native rat brain receptors; read-out: affinity for 5HT2A receptors (pKi) (converted)
Experimental: (§1) Receptor affinity is determined with standard radioligand binding techniques, using human recombinant receptors and native rat brain receptors. Blockade of dopamine D2 and noradrenergic α2c receptors is tested in cell-lines using luciferase reporter gene assays based on 2nd messenger responses.

[3] = target: adrenergic α1 receptors; experiment: radioligand binding, adrenergic α1 receptor; conditions: standard radioligand binding; human recombinant receptors and native rat brain receptors
Experimental: as §1

[4] = target: 5HT6 receptors (Homo sapiens, UniProt P50406); experiment: radioligand binding, 5HT6 receptor; conditions: standard radioligand binding; human recombinant receptors and native rat brain receptors; read-out: affinity for 5HT6 receptors (pKi) (converted)
Experimental: as §1

[5] = target: T1, adrenergic α2c receptors (Homo sapiens, UniProt P18825); experiment: radioligand binding, adrenergic α2c receptor; conditions: standard radioligand binding; human recombinant receptors and native rat brain receptors; read-out: affinity for adrenergic α2c receptors (pKi) (converted)
T1 sequence (P18825 1-462): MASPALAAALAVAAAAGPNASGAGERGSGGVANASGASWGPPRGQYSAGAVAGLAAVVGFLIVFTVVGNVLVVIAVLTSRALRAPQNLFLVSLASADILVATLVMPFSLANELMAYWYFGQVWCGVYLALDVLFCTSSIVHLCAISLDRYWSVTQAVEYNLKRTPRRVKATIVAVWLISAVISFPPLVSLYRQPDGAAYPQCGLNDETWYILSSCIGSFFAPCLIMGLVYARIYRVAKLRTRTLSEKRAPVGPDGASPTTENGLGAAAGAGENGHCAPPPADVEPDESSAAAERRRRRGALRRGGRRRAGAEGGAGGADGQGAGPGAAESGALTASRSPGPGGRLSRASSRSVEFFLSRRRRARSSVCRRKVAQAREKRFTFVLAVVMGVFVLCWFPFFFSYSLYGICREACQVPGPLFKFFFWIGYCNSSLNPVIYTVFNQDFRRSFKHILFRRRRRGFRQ
Experimental: as §1

[6] = metabolite formation in humans following administration of iloperidone; format: in vivo, human
From the text: P-88-8991 consists of a mixture of two enantiomers which have never been disclosed in the literature.

5HT6 receptors, sequence (P50406 whole entry): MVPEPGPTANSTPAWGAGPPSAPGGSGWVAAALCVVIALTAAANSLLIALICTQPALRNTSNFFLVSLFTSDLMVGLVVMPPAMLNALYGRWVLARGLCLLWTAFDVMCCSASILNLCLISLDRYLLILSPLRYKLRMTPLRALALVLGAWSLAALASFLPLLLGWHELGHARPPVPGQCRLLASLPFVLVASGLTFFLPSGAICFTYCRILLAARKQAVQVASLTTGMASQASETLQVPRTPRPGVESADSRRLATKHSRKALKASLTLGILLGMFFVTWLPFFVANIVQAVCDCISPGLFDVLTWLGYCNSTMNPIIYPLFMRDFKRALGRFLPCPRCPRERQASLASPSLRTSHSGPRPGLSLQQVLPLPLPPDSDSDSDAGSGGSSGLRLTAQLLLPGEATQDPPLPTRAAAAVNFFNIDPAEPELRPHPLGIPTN
5HT2A receptors, sequence (P28223 whole entry): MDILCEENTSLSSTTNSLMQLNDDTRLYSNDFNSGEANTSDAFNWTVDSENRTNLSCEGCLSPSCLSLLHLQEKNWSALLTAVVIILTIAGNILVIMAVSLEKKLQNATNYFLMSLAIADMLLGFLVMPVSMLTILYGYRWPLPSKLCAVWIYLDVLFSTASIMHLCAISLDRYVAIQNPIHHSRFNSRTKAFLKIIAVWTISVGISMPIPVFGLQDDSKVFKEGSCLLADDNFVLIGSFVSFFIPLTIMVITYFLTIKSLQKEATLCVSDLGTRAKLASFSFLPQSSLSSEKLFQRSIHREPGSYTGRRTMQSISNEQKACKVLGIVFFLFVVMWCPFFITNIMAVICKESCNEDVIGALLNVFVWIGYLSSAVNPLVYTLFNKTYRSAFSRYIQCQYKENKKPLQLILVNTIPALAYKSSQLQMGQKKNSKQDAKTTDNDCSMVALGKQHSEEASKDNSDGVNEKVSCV

Row | SMILES | plasma levels in human relative to the parent drug [1] | Ki [2] [nM] | affinity for adrenergic α1 receptors (pKi) [3] | Ki [4] [nM] | Ki [5] [nM] | stereospecific formation of P-88-8991 enantiomer [6]
1 | COc1cc(C(C)O)ccc1OCCCN1CCC(c2noc3cc(F)ccc23)CC1 (racemic) [P-88-8991] | about 1.5 fold | – | – | – | – | –
2 | COc1cc([C@H](C)O)ccc1OCCCN1CCC(c2noc3cc(F)ccc23)CC1 [formula I, (S)-1-(4-{3-[4-(6-fluoro-benzo[d]isoxazol-3-yl)-piperidin-1-yl]-propoxy}-3-methoxy-phenyl)-ethanol] | – | 1.26 | 8.9 | 7.94 | 15.8 | –
3 | COc1cc([C@@H](C)O)ccc1OCCCN1CCC(c2noc3cc(F)ccc23)CC1 [formula II, (R)-1-(4-{3-[4-(6-fluoro-benzo[d]isoxazol-3-yl)-piperidin-1-yl]propoxy}-3-methoxy-phenyl}-ethanol] | – | 1.26 | 9.2 | 15.8 | 20 | –
4 | COc1cc(C(C)=O)ccc1OCCCN1CCC(c2noc3cc(F)ccc23)CC1 [iloperidone, 1-(4-{3-[4-(6-fluoro-benzo[d]isoxazol-3-yl)piperidin-1-yl]propoxy}-3-methoxy-phenyl)-ethanone] | – | – | – | – | – | humans produce only one enantiomer stereospecifically
